{"source": "patent US8530447B2", "about": "“Dietary fiber formulation and method of administration” (Nestec S.A., priority 2005, dated 2013)", "test_system": "human fecal bacteria", "test": "Measure of prebiotic effect (MPE), stirred pH-controlled batch culture fermentations", "type": "cell-based", "description": "Quantitative in vitro methods are known for measuring the prebiotic effect of a fiber. The measurable effect a fiber has on the growth of major bacterial species in the human gut, bifidobacteria and lactobacilli in particular, is the measure of the prebiotic effect (MPE). MPE has three components:\n1. the rate fiber is fermented;\n2. the changes in bacterial populations; and\n3. the production of SCFA.\nThe rate of fiber fermentation is determined by the change in the concentration of fiber over time. Thus, the quicker the fiber concentration decreases, the faster the rate of fermentation by bacteria. Changes in bacterial populations are measured by the “prebiotic index,” which considers increases in the growth rate of bifidobacteria, lactobacilli, and eubacteria as positive effects and increases in bacteriodes, clostridia, Escherichia coli, and sulphate-reducing bacteria as negative effects. Different fibers support the growth of distinct bacteria and therefore yield varying patterns and/or amounts of SCFA. However, the prebiotic effect is usually associated with lactic acid-producing bacteria, bifidobacteria and lactobacilli being principle lactic acid producers. Therefore, the ratio of lactic acid production relative to the total SCFA production provides a qualitative as well as quantitative assessment of the fibers being examined. The MPE provides a quantitative analysis of the prebiotic potential of a fiber and provides further support for the benefits of specific fibers. Therefore, the MPE is a useful tool in identifying the types and specific amounts of fiber that promote optimal digestive health and prevent or treat intestinal diseases.\nEach value is based on stirred, pH-controlled batch culture fermentations using 0.25%, 0.5%, and 1.0% (w/v) substrates in the presence of human fecal bacteria."}
{"smiles": "OC[C@H]1O[C@@](CO)(O[C@H]2O[C@H](CO)[C@@H](O)[C@H](O)[C@H]2O)[C@@H](O)[C@@H]1O", "note": "[Sucrose]", "values": [{"measurement": "MPE", "setting": "0.25% (w/v) substrate", "value": "−0.3"}, {"measurement": "MPE", "setting": "0.5% (w/v) substrate", "value": "−0.3"}, {"measurement": "MPE", "setting": "1% (w/v) substrate", "value": "−0.6"}]}
